From ChEMBL document CHEMBL3758171 (Bioorg Med Chem, 2016)

Tests used:
Carbonic anhydrase 1 = Carbonic anhydrase 1 (Homo sapiens, UniProt P00915); assay: Inhibition of human recombinant carbonic anhydrase 1 preincubated for 15 mins by stopped flow CO2 hydration assay
Carbonic anhydrase 2 = Carbonic anhydrase 2 (Homo sapiens, UniProt P00918); assay: Inhibition of human recombinant carbonic anhydrase 2 preincubated for 15 mins by stopped flow CO2 hydration assay
Carbonic anhydrase 9 = Carbonic anhydrase 9 (Homo sapiens, UniProt Q16790)
Carbonic anhydrase 12 = Carbonic anhydrase 12 (Homo sapiens, UniProt O43570); assay: Inhibition of human recombinant carbonic anhydrase 12 preincubated for 15 mins by stopped flow CO2 hydration assay
Carbonic anhydrase 12, sequence (O43570 whole entry): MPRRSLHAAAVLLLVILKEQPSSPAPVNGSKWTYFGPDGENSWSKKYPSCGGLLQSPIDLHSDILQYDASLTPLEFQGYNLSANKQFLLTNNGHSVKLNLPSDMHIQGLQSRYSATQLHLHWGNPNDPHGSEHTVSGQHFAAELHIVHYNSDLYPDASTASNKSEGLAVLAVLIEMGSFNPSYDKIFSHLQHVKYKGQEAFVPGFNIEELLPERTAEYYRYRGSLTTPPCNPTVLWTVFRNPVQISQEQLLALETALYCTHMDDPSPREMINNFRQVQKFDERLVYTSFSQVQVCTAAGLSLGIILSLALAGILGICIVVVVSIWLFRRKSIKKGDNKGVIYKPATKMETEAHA

Carbonic anhydrase 1, sequence (P00915 whole entry): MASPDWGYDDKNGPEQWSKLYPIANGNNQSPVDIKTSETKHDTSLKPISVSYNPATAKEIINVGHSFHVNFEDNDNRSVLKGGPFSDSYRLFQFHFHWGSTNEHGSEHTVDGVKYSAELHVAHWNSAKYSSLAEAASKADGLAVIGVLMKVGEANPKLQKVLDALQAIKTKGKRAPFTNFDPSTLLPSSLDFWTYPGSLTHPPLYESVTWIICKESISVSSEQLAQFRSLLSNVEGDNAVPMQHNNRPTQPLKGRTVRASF

Ki (Carbonic anhydrase 1) [nM] | Ki (Carbonic anhydrase 2) [nM] | Ki (Carbonic anhydrase 9) [nM] | Ki (Carbonic anhydrase 12) [nM] | SMILES
1110 | > 10000 | 23 | 41 | O=C(CN1C(=O)c2ccccc2S1(=O)=O)c1ccc(F)cc1
1480 | > 10000 | 191 | 3.9 | O=C(CN1C(=O)c2ccccc2S1(=O)=O)c1ccc(Cl)cc1Cl
> 10000 | > 10000 | 223 | 4.3 | O=C(O)CN1C(=O)c2ccccc2C1=O
– | > 10000 | 184 | 26 | Cc1cccc(CN2C(=O)c3ccccc3S2(=O)=O)c1
> 10000 | > 10000 | 239 | 4.5 | CC1=CC(=O)N(Cc2ccc(Cl)cc2)S(=O)(=O)O1
> 10000 | > 10000 | 26 | 4 | CC1=CC(=O)N(CC(=O)c2ccc(-c3ccccc3)cc2)S(=O)(=O)O1
> 10000 | > 10000 | 22 | 4.3 | O=C1c2ccccc2S(=O)(=O)N1Cc1ccc(Br)cc1
> 10000 | > 10000 | 18 | 4 | O=C1c2ccccc2S(=O)(=O)N1Sc1ccccc1[N+](=O)[O-]
– | > 10000 | 1570 | 6 | COc1cccc(C(=O)CN2C(=O)c3ccccc3S2(=O)=O)c1
– | > 10000 | 196 | 3.6 | CC1=CC(OCC(=O)c2ccc(Br)cc2)=NS(=O)(=O)O1
– | > 10000 | 539 | 41 | O=C1c2ccccc2S(=O)(=O)N1Cc1ccc(F)cc1
– | > 10000 | 1170 | 29 | O=C1c2ccccc2S(=O)(=O)N1Cc1ccc([N+](=O)[O-])cc1
> 10000 | > 10000 | – | 5.6 | COc1cccc(C(=O)CN2C(=O)C=C(C)OS2(=O)=O)c1
– | > 10000 | 51 | 4.7 | O=C1c2ccccc2S(=O)(=O)N1Cc1ccc(C(F)(F)F)cc1
> 10000 | > 10000 | 265 | 5.5 | CC1=CC(OCC(=O)c2ccc(Cl)cc2Cl)=NS(=O)(=O)O1

Second part, the molecule before the results:

SMILES | Ki (Carbonic anhydrase 1) [nM] | Ki (Carbonic anhydrase 2) [nM] | Ki (Carbonic anhydrase 9) [nM] | Ki (Carbonic anhydrase 12) [nM]
Cc1ccccc1CN1C(=O)c2ccccc2S1(=O)=O | 1370 | > 10000 | 221 | 16
O=C(O)CN1C(=O)c2ccccc2S1(=O)=O | 110000 | 78000 | – | –
CC1=CC(=O)N(Cc2ccc([N+](=O)[O-])cc2)S(=O)(=O)O1 | > 10000 | > 10000 | 210 | 4.3
CC1=CC(=O)N(Cc2ccc(F)cc2)S(=O)(=O)O1 | > 10000 | > 10000 | 261 | 4.9
O=C1c2ccccc2S(=O)(=O)N1Cc1ccc(Cl)cc1 | – | > 10000 | 19 | 4.4
Cc1ccc(CN2C(=O)c3ccccc3S2(=O)=O)cc1 | > 10000 | > 10000 | 234 | 5.1
O=C1c2ccccc2S(=O)(=O)N1Cc1ccccc1C(F)(F)F | – | > 10000 | 616 | 15
CC1=CC(=O)N(CC(=O)c2ccc([N+](=O)[O-])cc2)S(=O)(=O)O1 | – | 1750 | 2480 | 3.9
O=C1c2ccccc2S(=O)(=O)N1Cc1cccc(C(F)(F)F)c1 | > 10000 | > 10000 | 19 | 17
CC1=CC(=O)N(CC(=O)c2ccc(C#N)cc2)S(=O)(=O)O1 | – | 140 | 27 | 4.1
O=C1NCc2ccccc21 | > 10000 | > 10000 | 174 | 4.1
